One assay concerns the target T1, human S1P1 receptor (Homo sapiens, UniProt P21453).
T1 construct: expressed in transfected cells; membranes used
Description: GTP γ35S binding assay for S1P1 activity. Format: biochemical. To be noted: membranes of cells stably expressing S1P1 receptor, 30 min at 25° C. How it is done:
Compounds were tested for S1P1 activity using the GTP γ^35S binding assay. These compounds may be assessed for their ability to activate or block activation of the human S1P1 receptor in cells stably expressing the S1P1 receptor.
GTP γ^35S binding was measured in the medium containing (mM) HEPES 25, pH 7.4, MgCl2 10, NaCl 100, dithitothreitol 0.5, digitonin 0.003%, 0.2 nM GTP γ^35S, and 5 μg membrane protein in a volume of 150 μl. Test compounds were included in the concentration range from 0.08 to 5,000 nM unless indicated otherwise. Membranes were incubated with 100 μM 5′-adenylylimmidodiphosphate for 30 min, and subsequently with 10 μM GDP for 10 min on ice. Drug solutions and membrane were mixed, and then reactions were initiated by adding GTP γ^35S and continued for 30 min at 25° C. Reaction mixtures were filtered over Whatman GF/B filters under vacuum, and washed three times with 3 mL of ice-cold buffer (HEPES 25, pH 7.4, MgCl2 10 and NaCl 100). Filters were dried and mixed with scintillant, and counted for ^35S activity using a β-counter. Agonist-induced GTP γ^35S binding was obtained by subtracting that in the absence of agonist. Binding data were analyzed using a non-linear regression method. In case of antagonist assay, the reaction mixture contained 10 nM S1P in the presence of test antagonist at concentrations ranging from 0.08 to 5000 nM. Activity potency: S1P1 receptor from GTP γ^35S: nM, (EC50),

A further assay deals with blood lymphocytes. Briefly: Lymphopenia assay in mice. It is filed as in vivo. As to conditions: female C57BL6 mice, 10 mg/Kg subcutaneously, after 24 hours. The protocol:
Test drugs are prepared in a solution containing 3% (w/v) 2-hydroxy propyl β-cyclodextrin (HPBCD) and 1% DMSO to a final concentration of 1 mg/ml, and subcutaneously injected to female C57BL6 mice (CHARLES RIVERS) weighing 20-25 g at the dose of 10 mg/Kg. Blood samples are obtained by puncturing the submandibular skin with a Goldenrod animal lancet at 24, 48, 72, and 96 hrs post drug application. Blood is collected into microvettes (SARSTEDT) containing EDTA tripotassium salt. Lymphocytes in blood samples are counted using a HEMAVET Multispecies Hematology System, HEMAVET HV950FS (Drew Scientific Inc.).
(Hale, J. et al Bioorg. & Med. Chem. Lett. 14 (2004) 3351).
A lymphopenia assay in mice; as previously described, was employed to measure the in vivo blood lymphocyte depletion after dosing with (2S)-2-amino-3-oxo-3-({4-[(5-phenylpentyl)oxy]-3-(2-thienyl)phenyl}amino)propyl dihydrogen phosphate. This S1P1 agonist is useful for S1P-related diseases and exemplified by the lymphopenia in vivo response. […] Lymphocytes in blood samples were counted using a HEMAVET Multispecies Hematology System, HEMAVET HV950FS (Drew Scientific Inc.). […]

Consider 4 compounds from patent US8653270B2, “Compounds as receptor modulators with therapeutic utility” (Allergan, Inc., priority 2010, dated 2014).

T1 sequence (P21453 whole entry): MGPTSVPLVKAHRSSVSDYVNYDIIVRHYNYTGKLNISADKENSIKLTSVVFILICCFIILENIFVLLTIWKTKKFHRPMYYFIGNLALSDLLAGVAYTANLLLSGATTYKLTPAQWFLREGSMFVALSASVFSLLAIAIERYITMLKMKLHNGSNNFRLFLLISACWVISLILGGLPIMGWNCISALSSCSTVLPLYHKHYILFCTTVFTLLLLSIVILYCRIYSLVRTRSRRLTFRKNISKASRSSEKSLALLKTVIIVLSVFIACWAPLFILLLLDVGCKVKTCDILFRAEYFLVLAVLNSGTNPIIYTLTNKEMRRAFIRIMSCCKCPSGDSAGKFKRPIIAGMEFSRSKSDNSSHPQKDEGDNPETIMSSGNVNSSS

On human S1P1 receptor, `C[C@](N)(COP(=O)(O)O)C(=O)Nc1ccc(OCCCCCc2ccccc2)c(-c2cccs2)c1` [Compound 2, (2S)-2-amino-2-methyl-3-oxo-3-({4-[(5-phenylpentyl)oxy]-3-(2-thienyl)phenyl}amino)propyl dihydrogen phosphate] registered an EC50 of 0.034 µM.

On human S1P1 receptor, “(2S)-2-amino-3-({3-(2-furyl)-4-[(5-phenylpentyl)oxy]phenyl}amino)-3-oxopropyl dihydrogen phosphate [Compound 3]” had an EC50 of 0.008 µM.

With `N[C@@H](COP(=O)(O)O)C(=O)Nc1ccc(OCCCCCc2ccccc2)c(-c2cccs2)c1` [Compound 4, (2S)-2-amino-3-oxo-3-({4-[(5-phenylpentyl)oxy]-3-(2-thienyl)phenyl}amino)propyl dihydrogen phosphate], in the assay with blood lymphocytes, the “lymphocyte count (number of lymphocytes 10^3/μL blood)” value is < 1 10^3/μL blood. For the same compound, the midpoint of the response on human S1P1 receptor, the EC50, lay at 0.003 µM.

As to `C[C@@](N)(COP(=O)(O)O)C(=O)Nc1ccc(OCCCCCc2ccccc2)c(-c2cccs2)c1` [Compound 1, (2R)-2-amino-2-methyl-3-oxo-3-({4-[(5-phenylpentyl)oxy]-3-(2-thienyl)phenyl}amino)propyl dihydrogen phosphate], it took 0.096 µM to reach a half-maximal effect at human S1P1 receptor (EC50).
